Test results as given in patent US11311542B2, “Inhibitors of cyclin dependent kinase 7 (CDK7)” (Syros Pharmaceuticals, Inc., priority 2018, dated 2022).

Legend:
[1] = molecular target: CDK9/Cyclin T1 complex (Homo sapiens, UniProt P50750); assay: CDK9 kinase inhibition assay (Caliper/LabChip EZ Reader)
Experimental: (§2) Compounds described herein were assayed for inhibition of CDK7, CDK9, CDK12, and CDK2 activity at Biortus Biosciences (Jiangyin, Jiangsu Province, P.R. of China) using kinase assays for each CDK developed with a Caliper/LabChip EZ Reader (Perkin Elmer, Waltham, Mass.).
(§3) Furthermore, the CDK9 inhibition assay used CDK9/Cyclin T1 complex (8 nM) and “5-FAM-CDK9tide” peptide substrate (2 μM, synthesized fluorophore-labeled peptide with the following sequence: 5-FAM-GSRTPMY-NH2 (SEQ ID NO:2) where 5-FAM is defined above and NH2 signifies a C-terminal amide) with 10 mM MgCl2 in the buffer composition listed above. The CDK12 inhibition assay used CDK12 (aa686-1082)/Cyclin K complex (50 nM) and “5-FAM-CDK9tide” (2 μM) as defined above, with 2 mM MgCl2 in the buffer composition above. Additionally, the CDK2 inhibition assay used CDK2/Cyclin E1 complex (0.5 nM) and “5-FAM-CDK7tide” (2 μM; defined above) with 2 mM MgCl2 in the buffer composition above.
(§4) The incubation period at 27° C. for each CDK inhibition assay was chosen such that the fraction of phosphorylated peptide product produced in each assay, relative to the total peptide concentration, was approximately 20% (±5%) for the uninhibited kinase (35 min. for CDK7, 35 min. for CDK2, 3 hr. for CDK12, 15 min. for CDK9).

[2] = tested on: COV504 cells; assay: Inhibition of cell proliferation (CyQUANT Direct), COV504; assay type: cell-based, human; conditions: Homo sapiens, COV504, 72-hour
Experimental: (§1) HCC70 and MB453 cells are cell lines derived from human triple negative breast cancer COV318 and COV504 cells are cell lines derived from human ovarian cancer. Representative compounds of the invention were tested at different concentrations (from 4 μM to 126.4 pM; 0.5 log serial dilutions) for their ability to inhibit the proliferation of each of these cell lines. Known CDK inhibitors dinaciclib or N-((1S,3R)-3-((5-chloro-4-(1H-indol-3-yl) pyrimidin-2-yl)amino)cyclohexyl)-5-((E)-4-(dimethylamino)but-2-enamido)picolinamide and triptolide were used as positive controls. Cells were seeded at approximately 2,000 cells/well and grown in ATCC-formulated RPMI-1640 Medium (ATCC 30-2001)+10% FBS. The cells were cultured at 37° C. in a humidified chamber in the presence of 5% CO2. Proliferation assays were conducted over a 72-hour time period. CyQUANT® Direct Cell Proliferation Assay (Life Technologies, Chicago, Ill. USA) was used to assess the anti-proliferative effects of the compounds following manufacturer's directions and utilizing the reagents supplied with the CyQUANT® Direct Cell kit.

[3] = tested on: HCC70 cells; assay: Inhibition of cell proliferation (CyQUANT Direct), HCC70; assay type: cell-based, human; conditions: Homo sapiens, HCC70, 72-hour
Experimental: as §1

[4] = molecular target: CDK12 (aa686-1082)/Cyclin K complex (Homo sapiens, UniProt Q9NYV4); assay: CDK12 kinase inhibition assay (Caliper/LabChip EZ Reader)
Experimental: as §2, §3, §4

[5] = tested on: COV318 cells; assay: Inhibition of cell proliferation (CyQUANT Direct), COV318; assay type: cell-based, human; conditions: Homo sapiens, COV318, 72-hour
Experimental: as §1

[6] = molecular target: CDK2/Cyclin E1 complex (Homo sapiens, UniProt P24941); assay: CDK2 kinase inhibition assay (Caliper/LabChip EZ Reader)
Experimental: as §2, §3, §4

[7] = molecular target: CDK7/Cyclin H/MAT1 complex (Homo sapiens, UniProt P50613); assay: CDK7 kinase inhibition assay (Caliper/LabChip EZ Reader)
Experimental: as §2, §3, §4

[8] = tested on: MB453 cells; assay: Inhibition of cell proliferation (CyQUANT Direct), MB453; assay type: cell-based, human; conditions: Homo sapiens, MB453, 72-hour
Experimental: as §1

Sequence of CDK7/Cyclin H/MAT1 complex (P50613 whole entry): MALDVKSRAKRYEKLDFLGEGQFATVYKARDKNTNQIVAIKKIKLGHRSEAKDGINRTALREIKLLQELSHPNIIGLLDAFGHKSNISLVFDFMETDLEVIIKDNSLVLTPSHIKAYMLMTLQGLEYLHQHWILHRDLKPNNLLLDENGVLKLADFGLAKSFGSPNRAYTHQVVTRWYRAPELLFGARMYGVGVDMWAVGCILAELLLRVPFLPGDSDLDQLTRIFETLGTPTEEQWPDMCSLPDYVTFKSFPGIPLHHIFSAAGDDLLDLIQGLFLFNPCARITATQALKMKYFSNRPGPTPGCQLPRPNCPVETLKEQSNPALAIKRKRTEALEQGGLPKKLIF
Sequence of CDK7/Cyclin H/MAT1 complex (P51946 whole entry partner): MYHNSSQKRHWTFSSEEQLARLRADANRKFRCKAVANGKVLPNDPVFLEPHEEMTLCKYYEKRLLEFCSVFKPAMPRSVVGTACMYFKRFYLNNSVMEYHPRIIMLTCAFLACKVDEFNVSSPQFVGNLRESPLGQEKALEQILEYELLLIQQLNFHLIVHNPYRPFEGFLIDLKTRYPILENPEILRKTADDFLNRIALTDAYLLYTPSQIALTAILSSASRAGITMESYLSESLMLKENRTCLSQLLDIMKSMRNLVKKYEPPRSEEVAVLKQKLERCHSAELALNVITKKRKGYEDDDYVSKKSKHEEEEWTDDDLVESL
Sequence of CDK7/Cyclin H/MAT1 complex (P51948 whole entry partner): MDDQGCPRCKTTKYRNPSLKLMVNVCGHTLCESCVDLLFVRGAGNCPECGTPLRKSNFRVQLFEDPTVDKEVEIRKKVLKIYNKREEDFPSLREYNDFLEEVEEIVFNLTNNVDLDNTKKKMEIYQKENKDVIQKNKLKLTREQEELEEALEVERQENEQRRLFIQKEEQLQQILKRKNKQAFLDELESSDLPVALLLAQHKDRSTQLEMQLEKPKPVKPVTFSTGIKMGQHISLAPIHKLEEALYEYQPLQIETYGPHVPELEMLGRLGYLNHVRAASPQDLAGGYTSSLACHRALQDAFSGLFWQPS
Sequence of CDK12 (aa686-1082)/Cyclin K complex (Q9NYV4 686-1082): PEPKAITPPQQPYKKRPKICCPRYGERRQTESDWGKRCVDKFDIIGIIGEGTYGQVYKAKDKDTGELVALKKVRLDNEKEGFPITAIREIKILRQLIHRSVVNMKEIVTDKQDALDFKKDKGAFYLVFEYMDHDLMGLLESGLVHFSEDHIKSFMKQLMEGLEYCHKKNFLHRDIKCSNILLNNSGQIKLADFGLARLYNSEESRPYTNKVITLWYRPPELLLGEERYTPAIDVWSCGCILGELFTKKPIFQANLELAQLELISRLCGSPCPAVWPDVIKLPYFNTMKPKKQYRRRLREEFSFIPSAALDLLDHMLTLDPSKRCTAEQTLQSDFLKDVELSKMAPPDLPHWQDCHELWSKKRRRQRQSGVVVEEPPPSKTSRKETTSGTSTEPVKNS
Sequence of CDK12 (aa686-1082)/Cyclin K complex (O75909 whole entry partner, the tested form may be a part): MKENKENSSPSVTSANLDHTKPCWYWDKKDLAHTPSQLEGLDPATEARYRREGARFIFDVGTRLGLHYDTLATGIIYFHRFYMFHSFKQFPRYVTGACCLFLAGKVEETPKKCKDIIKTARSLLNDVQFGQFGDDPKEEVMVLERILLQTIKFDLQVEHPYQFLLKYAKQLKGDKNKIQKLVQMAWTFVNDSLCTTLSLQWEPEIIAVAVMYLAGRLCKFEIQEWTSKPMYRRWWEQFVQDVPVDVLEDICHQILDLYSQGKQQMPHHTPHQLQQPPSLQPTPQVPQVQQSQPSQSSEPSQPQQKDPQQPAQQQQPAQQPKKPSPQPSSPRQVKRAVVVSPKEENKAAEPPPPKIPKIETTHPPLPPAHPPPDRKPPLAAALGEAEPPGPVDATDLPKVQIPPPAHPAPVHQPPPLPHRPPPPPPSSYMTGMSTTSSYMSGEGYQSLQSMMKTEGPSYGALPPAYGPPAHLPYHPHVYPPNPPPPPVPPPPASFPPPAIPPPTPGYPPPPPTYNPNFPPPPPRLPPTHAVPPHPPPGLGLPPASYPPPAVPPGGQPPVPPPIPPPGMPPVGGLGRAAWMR
Sequence of CDK9/Cyclin T1 complex (P50750 whole entry): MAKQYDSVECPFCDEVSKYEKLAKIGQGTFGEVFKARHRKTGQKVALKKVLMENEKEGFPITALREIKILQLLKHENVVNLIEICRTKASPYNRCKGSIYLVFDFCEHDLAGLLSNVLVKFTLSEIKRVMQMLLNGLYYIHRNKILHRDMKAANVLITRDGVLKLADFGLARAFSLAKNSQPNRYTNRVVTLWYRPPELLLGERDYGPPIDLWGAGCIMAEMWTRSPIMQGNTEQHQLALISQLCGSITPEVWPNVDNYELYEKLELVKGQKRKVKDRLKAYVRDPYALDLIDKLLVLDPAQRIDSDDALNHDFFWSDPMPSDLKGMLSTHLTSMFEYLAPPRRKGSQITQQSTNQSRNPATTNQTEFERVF
Sequence of CDK9/Cyclin T1 complex (O60563 whole entry partner): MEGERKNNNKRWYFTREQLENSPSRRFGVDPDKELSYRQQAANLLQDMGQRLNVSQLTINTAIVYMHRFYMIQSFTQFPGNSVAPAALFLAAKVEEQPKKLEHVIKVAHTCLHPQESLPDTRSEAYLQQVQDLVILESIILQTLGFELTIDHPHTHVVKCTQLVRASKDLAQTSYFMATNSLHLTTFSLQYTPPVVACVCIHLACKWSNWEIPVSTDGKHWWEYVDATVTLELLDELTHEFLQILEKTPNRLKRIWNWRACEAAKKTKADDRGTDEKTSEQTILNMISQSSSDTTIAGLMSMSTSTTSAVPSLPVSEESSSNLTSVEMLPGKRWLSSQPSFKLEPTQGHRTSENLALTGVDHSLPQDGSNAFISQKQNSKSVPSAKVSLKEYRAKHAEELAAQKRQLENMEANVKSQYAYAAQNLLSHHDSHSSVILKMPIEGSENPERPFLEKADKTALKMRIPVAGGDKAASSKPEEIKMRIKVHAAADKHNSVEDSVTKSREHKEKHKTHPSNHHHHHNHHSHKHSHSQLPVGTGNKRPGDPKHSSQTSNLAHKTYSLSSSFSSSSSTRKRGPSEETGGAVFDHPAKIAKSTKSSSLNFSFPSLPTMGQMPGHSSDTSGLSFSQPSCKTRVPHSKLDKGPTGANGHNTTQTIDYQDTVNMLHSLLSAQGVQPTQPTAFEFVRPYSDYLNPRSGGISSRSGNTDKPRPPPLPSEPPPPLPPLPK

SMILES | IC50 [1] [nM] | IC50 [2] [nM] | IC50 [3] [nM] | IC50 [4] [nM] | IC50 [5] [nM] | IC50 [6] [nM] | IC50 [7] [nM] | IC50 [8] [nM]
Cc1noc(C)c1-c1ccc2c(-c3nc(N[C@H]4CCC(C)(C)NC4)ncc3C(F)(F)F)c[nH]c2n1 [Compound 116] | > 500 | < 100 | < 100 | > 500 | < 100 | > 500 | < 30 | < 100
Cc1noc(C)c1-c1ccc2c(-c3nc(N[C@H]4CCCNC4)ncc3C(F)(F)F)n[nH]c2n1 [Compound 118, 4-[6-(3,5-dimethylisoxazol-4-yl)-1H-pyrazolo-[3,4-b]-pyridin-3-yl]-N-[(3S)-3-piperidyl]-5-(trifluoromethyl)pyrimidin-2-amine] | > 500 | < 100 | < 100 | > 500 | 100 to 500 | > 500 | < 30 | < 100
Cc1noc(C)c1-c1ccc2c(-c3nc(N[C@@H]4CNC[C@H](C(=O)N(C)C)C4)ncc3C(F)(F)F)c[nH]c2n1 [Compound 119, (3R,5S)-5-[[4-[6-(3,5-dimethylisoxazol-4-yl)-1H-pyrrolo[2,3-b]pyridin-3-yl]-5-(trifluoromethyl)pyrimidin-2-yl]amino]-N,N-dimethyl-piperidine-3-carboxamide] | > 500 | < 100 | < 100 | > 500 | > 1000 | > 500 | < 30 | < 100
CNC(=O)[C@H]1CNC[C@@H](Nc2ncc(C(F)(F)F)c(-c3c[nH]c4nc(-c5c(C)noc5C)ccc34)n2)C1 [Compound 120] | > 500 | 100 to 500 | 100 to 500 | > 500 | 500 to 1000 | > 500 | < 30 | < 100
Cc1noc(-c2ccc3c(-c4nc(N[C@H]5CCCNC5)ncc4C(F)(F)F)c[nH]c3c2)n1 [Compound 121, 4-[6-(3-methyl-1,2,4-oxadiazol-5-yl)-1H-indol-3-yl]-N-[(3S)-3-piperidyl]-5 (trifluoromethyl)pyrimidin-2-amine] | > 500 | < 100 | 100 to 500 | > 500 | 100 to 500 | > 500 | < 30 | < 100
Cn1nnnc1-c1ccc2c(-c3nc(N[C@H]4CCCNC4)ncc3C(F)(F)F)c[nH]c2c1 [Compound 122, 4-[6-(1-methyltetrazol-5-yl)-1Hindol-3-yl]-N-[(3S)-3-piperidyl]-5-(trifluoromethyl)pyrimidin-2-amine] | > 500 | < 100 | 100 to 500 | > 500 | > 1000 | > 500 | < 30 | < 100
Cc1nnc(-c2ccc3c(-c4nc(N[C@H]5CCCNC5)ncc4C(F)(F)F)c[nH]c3c2)s1 [Compound 123] | > 500 | < 100 | 100 to 500 | > 500 | 100 to 500 | > 500 | < 30 | < 100
Cc1noc(C)c1-c1ccc2c(-c3nc(N[C@H]4CC[C@H](C)NC4)ncc3C(F)(F)F)c[nH]c2n1 [Compound 124, 4-[6-(3,5-dimethylisoxazol-4-yl)-1H-pyrrolo-[2,3-b]-pyridin-3-yl]-N-[(3S,6S)-6-methyl-3-piperidyl]-5-(trifluoromethyl)pyrimidin-2-amine] | > 500 | < 100 | < 100 | > 500 | < 100 | > 500 | < 30 | < 100
Cc1noc(C)c1-c1ccc2c(-c3nc(N[C@@H]4CC[C@@H](C)NC4)ncc3C(F)(F)F)c[nH]c2n1 [Compound 125, 4-[6-(3,5-dimethylisoxazol-4-yl)-1H-pyrrolo-[2,3-b]-pyridin-3-yl]-N-[(3R,6R)-6-methyl-3-piperidyl]-5-(trifluoromethyl)pyrimidin-2-amine] | > 500 | < 100 | 100 to 500 | > 500 | 100 to 500 | > 500 | < 30 | < 100
Cn1nncc1-c1ccc2c(-c3nc(N[C@H]4CCCNC4)ncc3C(F)(F)F)c[nH]c2c1 [Compound 126] | > 500 | < 100 | < 100 | > 500 | 100 to 500 | > 500 | < 30 | < 100
Cc1nscc1-c1ccc2c(-c3nc(N[C@H]4CCCNC4)ncc3C(F)(F)F)c[nH]c2c1 [Compound 128] | > 500 | < 100 | < 100 | > 500 | 100 to 500 | > 500 | < 30 | < 100
Cc1nc(-c2ccc3c(-c4nc(N[C@H]5CCCNC5)ncc4C(F)(F)F)c[nH]c3c2)no1 [Compound 129, 4-[6-(5-methyl-1,2,4-oxadiazol-3-yl)-1H-indol-3-yl]-N-[(3S)-3-piperidyl]-5-(trifluoromethyl)pyrimidin-2-amine] | > 500 | < 100 | < 100 | > 500 | < 100 | > 500 | < 30 | < 100
Cc1nsc(-c2ccc3c(-c4nc(N[C@H]5CCCNC5)ncc4C(F)(F)F)c[nH]c3c2)n1 [Compound 130] | > 500 | 100 to 500 | 100 to 500 | > 500 | 100 to 500 | > 500 | < 30 | 100 to 500
CO[C@H]1CNC[C@@H](Nc2ncc(C(F)(F)F)c(-c3c[nH]c4cc(-c5c(C)noc5C)ccc34)n2)C1 [Compound 131] | > 500 | < 100 | 100 to 500 | > 500 | 100 to 500 | > 500 | < 30 | < 100
Cc1nocc1-c1ccc2c(-c3nc(N[C@H]4CCCNC4)ncc3C(F)(F)F)c[nH]c2n1 [Compound 132] | > 500 | < 100 | < 100 | > 500 | < 100 | > 500 | < 30 | < 100
Cc1noc(C)c1-c1ccc2c(-c3nc(N[C@@H]4CNC[C@H](O)C4)ncc3C(F)(F)F)c[nH]c2n1 [Compound 133, (3R,5S)-5-[[4-[6-(3,5-dimethylisoxazol-4-yl)-1H-pyrrolo[2,3-b]pyridin-3-yl]-5-(trifluoromethyl)pyrimidin-2-yl]amino]piperidin-3-ol] | > 500 | < 100 | < 100 | > 500 | 100 to 500 | > 500 | < 30 | < 100
Cc1noc(C)c1-c1cc2[nH]cc(-c3nc(N[C@H]4CCCNC4)ncc3C(F)(F)F)c2cc1F [Compound 134, 4-(6-(3,5-dimethylisoxazol-4-yl)-5-fluoro-1H-indol-3-yl)-N—((S)-piperidin-3-yl)-5-(trifluoromethyl)pyrimidin-2-amine] | > 500 | < 100 | < 100 | > 500 | < 100 | > 500 | < 30 | < 100
Cc1noc(-c2ccc3c(-c4nc(N[C@H]5CCCNC5)ncc4C(F)(F)F)c[nH]c3n2)n1 [Compound 136, 4-[6-(3-methyl-1,2,4-oxadiazol-5-yl)-1H-pyrrolo[2,3-b]pyridin-3-yl]-N-[(3S)-3-piperidyl]-5-(trifluoromethyl)pyrimidin-2-amine] | > 500 | < 100 | < 100 | > 500 | > 1000 | > 500 | < 30 | < 100
CC1(C)CNC[C@@H](Nc2ncc(C(F)(F)F)c(-c3c[nH]c4nc(-c5nccs5)ccc34)n2)C1 [Compound 137, N-[(3S)-5,5-dimethyl-3-piperidyl]-4-(6-thiazol-2-yl-1H-pyrrolo[2,3-b]pyridin-3-yl)-5-(trifluoromethyl)pyrimidin-2-amine] | > 500 | < 100 | < 100 | > 500 | < 100 | > 500 | < 30 | < 100
Cc1nc(-c2ccc3c(-c4nc(N[C@H]5CCCNC5)ncc4C(F)(F)F)c[nH]c3n2)no1 [Compound 139, 4-[6-(5-methyl-1,2,4-oxadiazol-3-yl)-1H-pyrrolo[2,3-b]pyridin-3-yl]-N-[(3S)-3-piperidyl]-5-(trifluoromethyl)pyrimidin-2-amine] | > 500 | < 100 | < 100 | > 500 | > 1000 | > 500 | < 30 | < 100
